Assay results taken from US10526316B2, “Quinoxaline and pyridopyrazine derivatives as PI3Kβ inhibitors” (Janssen Pharmaceutica NV, priority 2015, dated 2020).
pIC50, pKd: −log10 of the molar value. Where two headings read alike, the source gives them in different places.

How the values were obtained:
PI3Kδ = molecular target: T1, PI3Kδ (Homo sapiens, UniProt O00329); experiment: Enzyme binding assay (KINOMEscan, DiscoveRx); details: PIK3Cδ_h
T1 construct: purchased DiscoveRx Corporation, San Diego (contract service, KINOMEscan)
T1 sequence (O00329 1-1044): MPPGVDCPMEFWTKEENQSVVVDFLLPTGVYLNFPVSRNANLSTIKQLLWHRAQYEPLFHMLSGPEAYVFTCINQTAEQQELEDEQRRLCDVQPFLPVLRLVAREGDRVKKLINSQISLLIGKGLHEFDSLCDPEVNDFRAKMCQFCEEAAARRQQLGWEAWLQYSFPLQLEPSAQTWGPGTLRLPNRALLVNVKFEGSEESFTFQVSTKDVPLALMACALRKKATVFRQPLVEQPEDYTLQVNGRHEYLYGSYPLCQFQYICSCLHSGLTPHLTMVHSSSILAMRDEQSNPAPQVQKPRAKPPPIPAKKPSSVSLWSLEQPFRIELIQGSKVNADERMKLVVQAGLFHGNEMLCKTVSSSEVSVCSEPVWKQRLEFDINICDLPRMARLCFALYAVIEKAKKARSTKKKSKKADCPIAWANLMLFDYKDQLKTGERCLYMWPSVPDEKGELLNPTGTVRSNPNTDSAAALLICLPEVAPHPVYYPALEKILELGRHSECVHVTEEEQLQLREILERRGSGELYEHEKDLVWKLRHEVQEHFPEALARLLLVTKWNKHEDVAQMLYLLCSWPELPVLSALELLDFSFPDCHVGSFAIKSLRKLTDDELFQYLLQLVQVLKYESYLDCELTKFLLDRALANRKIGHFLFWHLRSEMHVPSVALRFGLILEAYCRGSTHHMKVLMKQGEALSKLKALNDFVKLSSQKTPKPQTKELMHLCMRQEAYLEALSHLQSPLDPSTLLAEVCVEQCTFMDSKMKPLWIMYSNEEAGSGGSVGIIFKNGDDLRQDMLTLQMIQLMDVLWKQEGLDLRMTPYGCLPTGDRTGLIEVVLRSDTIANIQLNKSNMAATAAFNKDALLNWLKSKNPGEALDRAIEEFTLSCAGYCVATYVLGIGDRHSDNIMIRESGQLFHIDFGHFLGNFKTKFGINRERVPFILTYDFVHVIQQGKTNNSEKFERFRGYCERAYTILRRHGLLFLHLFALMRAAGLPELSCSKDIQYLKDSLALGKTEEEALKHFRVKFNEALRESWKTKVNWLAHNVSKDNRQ
In short: (§1)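 Kinase binding measured via KINOMEscan, reported as affinity.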

[1] = tested on: Akt phosphorylated at Ser473 in PC-3 cells; experiment: Cellular assay: phosphorylation of Akt at Ser473 in PC-3 cells (MSD ELISA); type: cell-based; details: PC-3 cells, 60 min compound incubation, MSD ELISA, read-out: IC50 pAkt_S473
In short: (§2)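 PC-3 cells were exposed to compound or 0.3% DMSO for 60 min at 37° C, 5% CO2, then lysed in ice-cold buffer. Phospho-Akt was captured on site-specific antibody-coated plates and detected with Sulfo-tag anti-total Akt by electrochemiluminescence. IC50 values came from five-concentration response curves.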

kinase enzymes [2] = molecular target: T2, kinase enzymes (Homo sapiens, UniProt P48736); experiment: Enzyme binding assay (KINOMEscan, DiscoveRx), further kinases of Table A; details: PIK3Cγ_h
T2 construct: purchased DiscoveRx Corporation, San Diego (contract service, KINOMEscan)
In short: as §1

kinase enzymes [3] = molecular target: T3, kinase enzymes (Homo sapiens, UniProt P42345); experiment: as above; details: MTOR_h
T3 construct: purchased DiscoveRx Corporation, San Diego (contract service, KINOMEscan)
In short: as §1

kinase enzymes [4] = molecular target: T4, kinase enzymes (Homo sapiens, UniProt P42336); experiment: as above; details: PIK3Cα_h
T4 construct: purchased DiscoveRx Corporation, San Diego (contract service, KINOMEscan)
In short: as §1

[5] = tested on: Akt phosphorylated at Thr308 in PC-3 cells; experiment: Cellular assay: phosphorylation of Akt at Thr308 in PC-3 cells (MSD ELISA); type: cell-based; details: PC-3 cells, 60 min compound incubation, MSD ELISA, read-out: IC50 pAkt_Thr308
In short: as §2

PI3Kβ = molecular target: T5, PI3Kβ (Homo sapiens, UniProt P42338); experiment: Enzyme binding assay (KINOMEscan, DiscoveRx); details: PIK3Cβ_h, read-out: Kd PIK3Cβ_h
T5 construct: purchased DiscoveRx Corporation, San Diego (contract service, KINOMEscan)
In short: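 Reported Kd (nM) reflects inhibitor binding to the kinase, as measured by KINOMEscan technology.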

T5 sequence (P42338 whole entry): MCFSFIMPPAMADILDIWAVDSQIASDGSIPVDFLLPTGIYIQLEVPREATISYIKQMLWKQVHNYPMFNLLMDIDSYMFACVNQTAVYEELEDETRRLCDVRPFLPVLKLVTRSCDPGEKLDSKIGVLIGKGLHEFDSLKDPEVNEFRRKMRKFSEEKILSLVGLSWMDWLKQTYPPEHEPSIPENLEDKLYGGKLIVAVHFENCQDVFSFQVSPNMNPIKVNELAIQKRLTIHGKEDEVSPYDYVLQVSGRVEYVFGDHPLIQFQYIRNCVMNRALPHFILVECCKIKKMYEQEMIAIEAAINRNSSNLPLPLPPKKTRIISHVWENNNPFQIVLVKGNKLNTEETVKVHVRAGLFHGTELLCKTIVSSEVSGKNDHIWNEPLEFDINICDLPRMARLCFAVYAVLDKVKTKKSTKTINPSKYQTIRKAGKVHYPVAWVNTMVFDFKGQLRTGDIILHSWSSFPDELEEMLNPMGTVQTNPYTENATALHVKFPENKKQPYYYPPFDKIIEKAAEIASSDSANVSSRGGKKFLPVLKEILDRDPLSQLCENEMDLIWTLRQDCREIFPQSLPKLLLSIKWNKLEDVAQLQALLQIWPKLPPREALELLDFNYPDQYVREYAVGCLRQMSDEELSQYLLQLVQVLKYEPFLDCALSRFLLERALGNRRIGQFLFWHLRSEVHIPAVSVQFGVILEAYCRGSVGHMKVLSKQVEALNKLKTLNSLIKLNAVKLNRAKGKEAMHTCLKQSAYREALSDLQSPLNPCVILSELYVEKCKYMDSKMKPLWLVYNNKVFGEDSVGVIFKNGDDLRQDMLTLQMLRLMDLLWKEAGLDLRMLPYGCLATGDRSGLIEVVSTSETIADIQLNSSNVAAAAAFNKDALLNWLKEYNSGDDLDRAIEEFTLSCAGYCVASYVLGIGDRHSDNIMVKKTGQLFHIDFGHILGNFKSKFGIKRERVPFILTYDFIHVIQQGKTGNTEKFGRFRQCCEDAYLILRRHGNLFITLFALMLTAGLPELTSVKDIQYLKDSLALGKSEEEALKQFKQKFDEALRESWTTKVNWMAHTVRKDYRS
T2 sequence (P48736 whole entry): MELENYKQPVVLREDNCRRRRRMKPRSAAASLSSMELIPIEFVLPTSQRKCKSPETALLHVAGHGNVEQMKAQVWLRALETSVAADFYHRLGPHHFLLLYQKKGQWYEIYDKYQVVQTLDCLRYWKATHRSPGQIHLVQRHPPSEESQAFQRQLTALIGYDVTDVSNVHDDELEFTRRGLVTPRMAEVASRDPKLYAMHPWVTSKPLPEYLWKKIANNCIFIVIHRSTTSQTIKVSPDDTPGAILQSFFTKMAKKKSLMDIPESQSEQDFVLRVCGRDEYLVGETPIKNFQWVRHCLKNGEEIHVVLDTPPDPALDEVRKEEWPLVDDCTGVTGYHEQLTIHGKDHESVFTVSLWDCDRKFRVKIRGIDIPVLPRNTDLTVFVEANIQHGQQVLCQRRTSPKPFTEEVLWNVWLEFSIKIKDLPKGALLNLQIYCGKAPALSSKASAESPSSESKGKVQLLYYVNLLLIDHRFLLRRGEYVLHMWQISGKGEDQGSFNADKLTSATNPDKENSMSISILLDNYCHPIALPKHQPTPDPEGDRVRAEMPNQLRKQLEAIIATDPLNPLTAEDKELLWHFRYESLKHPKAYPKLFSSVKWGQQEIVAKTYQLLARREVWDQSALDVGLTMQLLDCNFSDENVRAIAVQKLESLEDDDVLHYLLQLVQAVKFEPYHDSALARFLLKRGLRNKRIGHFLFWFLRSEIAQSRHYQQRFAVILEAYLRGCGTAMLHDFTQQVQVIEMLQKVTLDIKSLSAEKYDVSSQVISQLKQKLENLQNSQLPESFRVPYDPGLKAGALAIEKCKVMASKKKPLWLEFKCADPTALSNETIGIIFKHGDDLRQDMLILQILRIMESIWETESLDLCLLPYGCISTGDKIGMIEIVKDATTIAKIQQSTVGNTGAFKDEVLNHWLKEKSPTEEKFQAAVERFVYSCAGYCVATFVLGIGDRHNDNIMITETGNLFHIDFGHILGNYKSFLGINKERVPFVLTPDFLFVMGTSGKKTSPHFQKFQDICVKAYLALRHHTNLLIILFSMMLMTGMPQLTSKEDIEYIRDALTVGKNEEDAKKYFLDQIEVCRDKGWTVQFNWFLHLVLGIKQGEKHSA
T4 sequence (P42336 whole entry): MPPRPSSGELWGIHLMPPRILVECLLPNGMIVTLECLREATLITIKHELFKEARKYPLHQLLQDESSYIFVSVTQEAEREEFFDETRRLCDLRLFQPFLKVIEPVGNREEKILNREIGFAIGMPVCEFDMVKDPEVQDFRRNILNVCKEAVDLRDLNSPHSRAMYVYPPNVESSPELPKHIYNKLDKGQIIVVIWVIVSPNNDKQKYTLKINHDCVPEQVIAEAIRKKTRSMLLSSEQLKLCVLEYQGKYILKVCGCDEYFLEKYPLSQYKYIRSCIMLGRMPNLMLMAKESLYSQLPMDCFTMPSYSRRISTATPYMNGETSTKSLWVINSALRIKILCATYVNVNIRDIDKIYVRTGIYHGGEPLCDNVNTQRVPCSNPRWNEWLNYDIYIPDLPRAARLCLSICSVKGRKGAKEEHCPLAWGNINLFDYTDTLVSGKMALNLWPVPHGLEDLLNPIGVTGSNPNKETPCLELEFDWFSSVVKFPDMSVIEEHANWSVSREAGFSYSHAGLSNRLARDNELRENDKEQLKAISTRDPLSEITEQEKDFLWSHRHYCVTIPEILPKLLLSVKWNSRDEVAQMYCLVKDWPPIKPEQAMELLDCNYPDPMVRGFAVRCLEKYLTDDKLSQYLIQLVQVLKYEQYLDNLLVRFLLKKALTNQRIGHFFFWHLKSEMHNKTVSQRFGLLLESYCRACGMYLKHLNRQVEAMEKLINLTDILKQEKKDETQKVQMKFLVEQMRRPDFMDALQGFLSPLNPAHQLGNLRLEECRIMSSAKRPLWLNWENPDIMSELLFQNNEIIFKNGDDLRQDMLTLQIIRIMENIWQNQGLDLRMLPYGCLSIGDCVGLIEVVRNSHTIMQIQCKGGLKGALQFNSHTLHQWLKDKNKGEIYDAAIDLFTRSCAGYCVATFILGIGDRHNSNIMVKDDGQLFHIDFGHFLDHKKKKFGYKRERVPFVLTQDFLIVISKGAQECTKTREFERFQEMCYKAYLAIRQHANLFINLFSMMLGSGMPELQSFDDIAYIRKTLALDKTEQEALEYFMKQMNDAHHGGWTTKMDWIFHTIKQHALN

Structure (SMILES)	pKd (PI3Kδ)	pIC50 ([1]; Homo sapiens, PC-3, 1 h)	melting point [°C]	pKd (kinase enzymes [2])	pKd (kinase enzymes [3])	pKd (kinase enzymes [4])	pIC50 ([5]; Homo sapiens, PC-3, 1 h)	pKd (PI3Kβ)	pIC50 [1]	pIC50 [5]
CC(Nc1cc(F)cc(F)c1)c1cc(C(=O)N(C)C)cc2ncc(N3CCOCC3)nc12 (stereo not drawn) [Compound 11]	6.56	7.09	228	5.60	< 4.52	6.20	7.38	9.00	–	–
O=C(NCCO)c1cc(C2CCCN2c2cc(F)cc(F)c2)c2nc(N3CCOCC3)cnc2c1 (stereo not drawn) [Compound 71]	6.86	~7.82	80	6.10	4.65	6.60	7.89	9.00	–	–
Cc1cccc(N(C)C(C)c2cc(C(=O)N(C)C)cc3ncc(N4CCOCC4)nc23)c1 (single isomer, unassigned) [Compound 127]	5.64	~6.34	80	4.66	4.59	5.19	6.48	7.49	–	–
CC(Oc1cc(F)cc(F)c1)c1cc(C(=O)NCCO)cc2ncc(N3CCOCC3)nc12 (stereo not drawn) [Compound 198]	5.50	< 6.29	171	4.81	< 4.52	4.95	6.70	7.66	–	–
CC(Nc1cc(F)cc(F)c1)c1cc(C(=O)O)cc2ncc(N3CCOCC3)nc12 (single isomer, unassigned) [Compound 83b]	6.89	< 6.29	180	6.25	5.89	6.77	< 6.29	9.00	–	–
CN(CCO)Cc1cc(C2CCCN2c2cc(F)cc(F)c2)c2nc(N3CCOCC3)cnc2c1 (stereo not drawn) [Compound 101]	7.40	7.68	80	6.40	< 4.52	6.58	7.85	9.40	–	–
NCc1cc(C2CCCN2c2cc(F)cc(F)c2)c2nc(N3CCOCC3)cnc2c1 (stereo not drawn) [Compound 96]	7.08	7.60	80	6.52	4.76	6.44	7.70	9.40	–	–
CC(c1cc(C(=O)N2CCOCC2)cc2ncc(N3CCOCC3)nc12)N(C)c1cccc(F)c1 (stereo not drawn) [Compound 105]	6.06	6.52	161	4.55	< 4.52	5.41	6.86	8.10	–	–
CNCCOCCN(C)C(=O)c1cc(C(C)Nc2cc(F)cc(F)c2)c2nc(N3CCOCC3)cnc2c1 (single isomer, unassigned) [Compound 174]	4.58	–	80	< 4.52	< 4.52	< 4.52	–	5.92	< 6.29	< 6.29
CC(Nc1cc(F)cc(F)c1)c1cc(C(=O)N2CCNC(C(F)(F)F)C2)cc2ncc(N3CCOCC3)nc12 (single isomer, unassigned) [Compound 237a]	6.69	–	120	5.30	< 4.52	6.98	–	9.00	8.22	8.40
CC(Nc1cccc(F)c1)c1cc(C(=O)N2CCC[C@H]2CO)cc2ncc(N3CCOCC3)nc12 (single isomer, unassigned) [Compound 115]	6.49	–	327	–	< 4.52	5.78	–	8.70	7.18	7.51

More lines, now with the values ahead:

pKd (PI3Kδ)	pIC50 ([1]; Homo sapiens, PC-3, 1 h)	melting point [°C]	pKd (kinase enzymes [2])	pKd (kinase enzymes [3])	pKd (kinase enzymes [4])	pIC50 ([5]; Homo sapiens, PC-3, 1 h)	pKd (PI3Kβ)	pIC50 [1]	pIC50 [5]	Structure (SMILES)
6.43	6.84	77	5.19	4.72	5.27	6.94	8.30	–	–	CC(Nc1ccc(F)c(F)c1)c1cc(C(=O)NCCO)cc2ncc(N3CCOCC3)nc12 (stereo not drawn) [Compound 279]
5.39	< 6.29	80	< 4.52	< 4.52	5.35	< 6.29	7.36	–	–	CC(Nc1cc(C(=O)N(C)C)cc2ncc(N3CCOCC3)nc12)c1cc(F)cc(F)c1 (stereo not drawn) [Compound 402]
6.42	7.12	80	4.81	< 4.52	5.71	7.12	8.30	–	–	CC(Nc1ccc(F)c(F)c1)c1cc(C(=O)N2CCC[C@H](O)C2)cc2ncc(N3CCOCC3)nc12 (stereo partly drawn) [Compound 302]
4.91	< 6.29	80	< 4.52	4.94	5.73	< 6.29	6.26	–	–	C[C@H](Nc1cc(C(=O)N(C)C)cc2ncc(N3CCOCC3)nc12)c1ccc(F)cc1 [Compound 401]
6.93	7.70	80	5.54	< 4.52	5.68	7.89	9.00	–	–	CN[C@H]1CCN(C(=O)c2cc(C(C)Nc3ccc(F)c(F)c3)c3nc(N4CCOCC4)cnc3c2)C1 (mixture of isomers) [Compound 365]
6.97	–	128	5.58	< 4.52	5.91	–	9.52	6.97	7.40	CN[C@H]1CCN(C(=O)c2cc(C(C)Oc3ccc(F)c(F)c3)c3nc(N4CCOCC4)cnc3c2)C1 (single isomer, unassigned) [Compound 370a]
